Positions of bridges follow the written chain, without caps; N, C: chain ends. No end group written: not given here.

What all share (format): in vivo, mouse
Test [1] has as its system Sgcd −/− mice. Briefly: H&E and Masson's Trichrome stain of quadriceps muscle for fibrosis, Example 4. The conditions noted are these: osmotic minipump 8 weeks, TXA127 500, Pancyte 50, TXA301 50 μg/kg/day, vs saline, FIG. 10. On the procedure: (§1) A total of 32 Sgcd −/− mice were randomly assigned to one of four treatment groups (n=8 in each): a saline group (vehicle) a TXA127 group, a Pancyte group, and a TXA301 group. The doses of Angiotensin (1-7) peptides administered was 500 μg/kg/day for TXA127, 50 μg/kg/day for Pancyte, and 50 μg/kg/day for TXA301. Osmotic minipumps containing the treatments were implanted in mice at 28-35 weeks of age, and the angiotensin (1-7) peptides were infused for 8 weeks. For the last three weeks of treatment, the mice were put in cages with running wheels attached to calculate the amount of voluntary exercise performed by each animal. Total number of wheel revolutions (distance ran) were collected daily. At the end of 8 weeks of treatment, quadriceps muscles were harvested from the mice for histopathological and oxidative stress analyses.
An H&E stain was used to examine the dystrophic morphology of the quadriceps muscles of the mice.

Test [2] relates to Sgcd −/− mice. Nature of the test: Voluntary running-wheel exercise in Sgcd −/− mice, Example 4. The settings on record: for amount of voluntary exercise performed (average running-wheel revolutions, weeks 6, 7 and 8) / amount of exercise performed (accumulated totals over the three week test period): osmotic minipump 8 weeks, vs saline; for amount of voluntary exercise performed (average running-wheel revolutions, weeks 6, 7 and 8): TXA127 500, Pancyte 50, TXA301 50 μg/kg/day, FIG. 8; for amount of exercise performed (accumulated totals over the three week test period): TXA127 500, TXA301 50 μg/kg/day, FIG. 9.
Excerpt: In this Example, Sarcoglycan delta deficient mice (Sgcd−/−), an established mouse model of Limb Girdle Muscular Dystrophy-2F (LGMD-2F), was used to examine the effects of angiotensin (1-7) peptides on the progression of functional impairment and fibrosis in sufferers of the disease.
as §1

Test [3] has as its system Sgcd −/− mice. Nature of the test: Baroreflex sensitivity and cardiac/vasomotor autonomic tone in Sgcd −/− mice. The settings on record: Ang-(1-7) 300 ng/kg/min for 8 weeks. The procedure: (§2) To examine the effects of angiotensin (1-7) peptides on disruption of normal motor activity in Sgcd −/− mice, conscious, young (10-15 wks) Sgcd−/− and control C57BL6 mice were analyzed by radio-telemetry. Radio-telemeters were implanted into the aorta via the left carotid artery under ketamine-xylazine anesthesia when mice were 10 weeks of age. Following recovery, blood pressure, heart rate and locomotor activity were measured 24 hours/day. Blood pressure measurements were sampled at 2000 Hz for 1 hour periods to enable beat-to-beat measurements of systolic arterial pressure and pulse interval (PI). Baroreflex control of heart rate was assessed from spontaneous fluctuations in systolic blood pressure and pulse interval using known sequence techniques.
Baroreflex sensitivity was calculated from spontaneous fluctuations in systolic blood pressure and pulse interval using the sequence technique. Specifically, baroreflex sensitivity was calculated as the average slope of sequences of 4 or more consecutive blood pressure pulses where the change in blood pressure and pulse interval are positively correlated (r^2>0.85).
Cardiac sympathetic tone and parasympathetic tone were calculated from heart rate responses to the β-adrenergic receptor blocker propranolol and the muscarinic cholinergic receptor blocker methylatropine, respectively. Specifically, resting cardiac sympathetic and parasympathetic (vagal) tone was estimated from heart rate responses to propranolol (1 μg/g, IP) and methylatropine (1 μg/g, IP), respectively. Vasomotor sympathetic tone was calculated from the decrease in mean arterial blood pressure in response to injection of the ganglionic blocker chlorisondamine (12 μg/g, IP).
(§3) Data were collected over 2-3 days, and 24 hour averages were calculated. Separate groups of control and Sgcd−/− mice were infused with Ang-(1-7) (300 ng/kg/min) for 8 weeks beginning at 3 weeks of age. Measurements were obtained in these mice using the same protocols as described above.
(§4) Data in this example are presented as ±SE. Results were analyzed by ANOVA, and paired and unpaired t-tests as appropriate, significance was determined at p<0.05.

Test [4] concerns angiotensin type 1 receptors (AT1R). Briefly: AT1R expression in skeletal muscle sections (Alexa Fluor 488 staining). The settings on record: Sgcd −/− mice, Ang-(1-7) 300 ng/kg/min for 8 weeks; vs untreated Sgcd −/−; FIG. 6. The procedure:
as §3
(§5) To assess skeletal muscle phenotypes, paraffin sections of skeletal muscle (quadriceps) were stained with Masson Trichrome to assess histopathology and fibrosis. Frozen sections of skeletal muscle were incubated with polyclonal anti-δ and anti-β sarcoglycan primary antibody, a nuclear stain, and Alexa Fluor 488. AT1R (Ang type 1 receptor) and Mas (Ang(1-7) receptor) were detected with rabbit anti-AT1R, and anti-Mas nuclear stains, and secondary antibody goat anti-rabbit IgG. Oxidative stress (O2.^−) was measured by dihydrocthidium (DHE) fluorescence.

Test [5] relates to Sgcd −/− mice. Briefly: Oxidative stress (superoxide) by dihydroethidium (DHE) fluorescence in skeletal muscle, Example 2. The settings on record: Ang-(1-7) 300 ng/kg/min for 8 weeks, vs untreated Sgcd −/−, FIG. 7. On the procedure: as §3, §5, §4
In test [6] the test system is Sgcd −/− mice. Briefly: Masson Trichrome stain of skeletal muscle (quadriceps) for fibrosis, Example 2. The procedure:
as §3, §5, §4

Test [7] has as its system Sgcd −/− mice. Nature of the test: Oxidative stress by DHE stain of quadriceps muscle, Example 4. The conditions noted are these: TXA127 500 μg/kg/day for 8 weeks, vs saline, FIG. 11. On the procedure:
as §1
Dihydroethidium (DHE) was used to examine the degree of oxidative stress in treated Sgcd−/− mice. […] For quantification of degree of fibrosis, an average of six-sections of skeletal quadriceps muscle were obtained from each mouse. An intensity of fluorescence for each mouse was quantified using NIH ImageJ software and normalized to a percentage of the average fluorescence intensity measured in saline-treated Sgcd−/− mice.

The test system of test [8] is Sgcd −/− mice. Nature of the test: Radio-telemetry of blood pressure, heart rate and locomotor activity in Sgcd −/− mice.
Excerpt: In this Example, Sgcd −/− mice, a known model of limb-girdle muscular dystrophy, were used to assess the effects of angiotensin (1-7) peptides on skeletal muscle fibrosis, blood pressure, heart rate, cardiac activity, baroreflex sensitivity, oxidative stress, AT1R receptor expression, and resting cardiac and vagal sympathetic tone. Sgcd −/− mice are missing a key component of the sarcoglycan complex, specifically, they are missing a link between the F-actin cytoskeleton and the extracellular matrix. This defect causes muscle wasting and weakness due to a reduction in muscle fiber integrity and dysregulation in cell signaling in muscle cells. It has been previously shown that this defect results in a reduction of locomotor activity and autonomic dysfunction at a young age. The autonomic dysfunction is thought to lead to cardiac dysfunction later in life.
as §2
Osmotic minipumps (Alzet) were implanted with either Ang (1-7) (also referred to as “TXA127”) or vehicle in mice pups at 3 weeks of age, under ketamine-xylazine anesthesia.
as §3, §4

Take “Asp^1-Arg^2-Val^3-Ser^4-Ile^5-His^6-Cys^7 [TXA301] (DRVSIHC; bridge 4-7; also: cross link type between Ser4 and Cys7 not given here) [linear angiotensin (1-7) peptide]”: in test [1], the “fibrosis in skeletal muscle (quadriceps)” value is on record as “some improvement”. Moreover, in test [2], the “amount of voluntary exercise performed (average running-wheel revolutions, weeks 6, 7 and 8)” value is given as “significant improvement”; the “amount of exercise performed (accumulated totals over the three week test period)” value is given as “significant increases”.

With “Asp^1-Arg^2-Val^3-Tyr^4-Ile^5-His^6-Pro^7 [Ang (1-7)]”, the “fibrosis in skeletal muscle (quadriceps)” value in test [1] was “significantly reduced fibrosis”. Further, the “baroreflex sensitivity (decrease in Sgcd −/− mice)” value in test [3] (FIG. 4A) is “essentially abrogated”. Also, the “vasomotor sympathetic tone (increase in Sgcd −/− mice)” value in test [3] (blood pressure response to chlorisondamine, FIG. 4D) was “essentially abrogated”. The “cardiac vagal tone (decrease in Sgcd −/− mice)” value in test [3] (heart rate response to methylatropine, FIG. 4B) is on record as “essentially abrogated”. In addition, in test [3] (heart rate response to propranolol, FIG. 4C), the “cardiac sympathetic tone (increase in Sgcd −/− mice)” value is “essentially abrogated”. In addition, the AT1R receptor expression result in test [4] is given as “essentially abrogates the increase in AT1R”. Further, in test [5], the “levels of superoxide (DHE fluorescence)” value is given as “strongly attenuated”. In test [2] (TXA127 500 μg/kg/day, accumulated totals weeks 6-8, FIG. 9), the “fold improvement in exercise compared to saline control animals” value is “more than six fold improvement”. In test [2], the “amount of voluntary exercise performed (average running-wheel revolutions, weeks 6, 7 and 8)” value is “significant improvement”; the “amount of exercise performed (accumulated totals over the three week test period)” value was “significant increases”. In addition, the “fibrosis of skeletal muscle (quadriceps)” value in test [6] (Sgcd −/− mice, Ang-(1-7) 300 ng/kg/min for 8 weeks, vs untreated Sgcd −/−, FIG. 5) is “markedly reduced”. Also, in test [6] (treated Sgcd −/− mice vs control C57BL6 mice, FIG. 5B), the “levels of fibrosis compared with control C57BL6 mice” value is given as “comparable to control C57BL6 mice”. In addition, in test [7], the “oxidative stress (DHE fluorescence intensity)” value is listed as “significantly attenuated”. Further, in test [8] (Sgcd −/− mice, Ang-(1-7) 300 ng/kg/min by osmotic minipump for 8 weeks from 3 weeks of age, vs untreated Sgcd −/−, FIG. 2A), the “mean arterial blood pressure” value was “not significantly affected”. In addition, in test [8] (Sgcd −/− mice, Ang-(1-7) 300 ng/kg/min for 8 weeks, vs untreated Sgcd −/− controls, FIG. 2B), the “24 hour average heart rate” value is “mildly decrease”. Also, in test [8] (Sgcd −/− mice, Ang-(1-7) 300 ng/kg/min for 8 weeks, vs untreated Sgcd −/−, FIG. 3), the “24 hour average locomotor activity” value is “reduction in locomotor activity was drastically reduced”. Moreover, the “levels of locomotion compared with Control C57BL6 mice” value in test [8] (treated Sgcd −/− mice vs Control C57BL6 mice, FIG. 3) is “did not vary significantly”.

Take “Asp^1-Arg^2-Val^3-Ser^4-Ile^5-His^6-Cys^7 [PanCyte] (DRVSIHC; bridge 4-7; also: cross link type between Ser4 and Cys7 not given here) [cyclic angiotensin (1-7) peptide analog]”: in test [1], the “fibrosis in skeletal muscle (quadriceps)” value is on record as “no reduction in fibrosis was observed”.

For the origin of these results see patent US20180221433A1, “ANGIOTENSINS IN MUSCULAR DYSTROPHY” (University of Iowa Research Foundation, priority 2013, published 2018).
